Test results from patent US20250353858A1, “CONDENSED HETEROCYCLIC COMPOUNDS AS INHIBITOR OF DIACYLGLYCEROL KINASES” (BEONE MEDICINES I GMBH, priority 2023, published 2025).

Tests used:
[1] = molecular target: DGKζ (Homo sapiens (Human), UniProt Q13574); assay: Biochemical DGK IC50 assay (ADP-Glo, lipid micelle substrate), DGKζ; settings: full length DGKζ 0.5 nM, ATP 140 μM, DAG 80 μM
Protocol: (§1) Enzymatic reactions of DGKζ, DGKα and DGKδ were performed using ADP-Glo assay with lipid micelle substrate. […] Full length DGKα (D21-10BG, SignalChem) and full length DGKδ (D23-10G, SignalChem) were purchased. Lipid micelle was prepared by dissolving DAG (Sigma, 317505-10MG) and PS (Sigma, P7769-100MG) with chloroform which was furtherly removed by rotary evaporation. The resulted product was resuspended in buffer containing 25 mM HEPES pH 7.0, 0.5 mM EDTA and 160 mM Octyl β-D glucopyranoside by vigorous mixing and ultrasonic (IID, Scientz).
(§2) The inhibition activities testing for the compound disclosed herein were carried out at room temperature in assay buffer containing 50 mM HEPES, 10 mM MgCl2, 0.01% BSA, 0.1 mM Na3VO4, 0.005% Tween-20 and 0.01 mM CaCl2. Compounds in DMSO were dispensed into wells of a black 384 well plate (Corning 4514) using D300e digital dispenser (Tecan). […] 3 μL 2× enzyme solution was added to wells. […] After 1 hour reaction, 5 μL ADP-Glo reagent (Promga V9101) was added and incubated for 40 minutes. 10 μL Kinase Detection reagent was added and incubated for 30 minutes. Luminescence was measured on a microplate reader (PHERAstar FSX, BMG labtech). The IC50s are calculated based on inhibition of enzyme activity in the presence of increasing concentrations of compounds.
Human His-TEV-DGK-zeta-pFastBac1 and human baculovirus samples was generated using the Bac-to-Bac baculovirus expression system (Invitrogen) according to the manufacturer's protocol. The DNA used for expression of DGK-zeta, have SEQ ID Nos: 1. Baculovirus amplification was achieved using infected SF9 cells at 1:2000 virus/cells ratios, and grown for 96 hours at 27° C. post-transfected.
Full length human DGKζ produced as described above, was purified from Sf9 baculovirus-infected insect cell paste. The cells were lysed using sonication method, and the lysates were clarified by centrifugation.

[2] = molecular target: DGKα (Homo sapiens (Human), UniProt P23743); assay: Biochemical DGK IC50 assay (ADP-Glo, lipid micelle substrate), DGKα; settings: full length DGKα […], ATP 140 μM, DAG 80 μM; note: full length DGKα 7.5 nM
DGKα, sequence (P23743 whole entry): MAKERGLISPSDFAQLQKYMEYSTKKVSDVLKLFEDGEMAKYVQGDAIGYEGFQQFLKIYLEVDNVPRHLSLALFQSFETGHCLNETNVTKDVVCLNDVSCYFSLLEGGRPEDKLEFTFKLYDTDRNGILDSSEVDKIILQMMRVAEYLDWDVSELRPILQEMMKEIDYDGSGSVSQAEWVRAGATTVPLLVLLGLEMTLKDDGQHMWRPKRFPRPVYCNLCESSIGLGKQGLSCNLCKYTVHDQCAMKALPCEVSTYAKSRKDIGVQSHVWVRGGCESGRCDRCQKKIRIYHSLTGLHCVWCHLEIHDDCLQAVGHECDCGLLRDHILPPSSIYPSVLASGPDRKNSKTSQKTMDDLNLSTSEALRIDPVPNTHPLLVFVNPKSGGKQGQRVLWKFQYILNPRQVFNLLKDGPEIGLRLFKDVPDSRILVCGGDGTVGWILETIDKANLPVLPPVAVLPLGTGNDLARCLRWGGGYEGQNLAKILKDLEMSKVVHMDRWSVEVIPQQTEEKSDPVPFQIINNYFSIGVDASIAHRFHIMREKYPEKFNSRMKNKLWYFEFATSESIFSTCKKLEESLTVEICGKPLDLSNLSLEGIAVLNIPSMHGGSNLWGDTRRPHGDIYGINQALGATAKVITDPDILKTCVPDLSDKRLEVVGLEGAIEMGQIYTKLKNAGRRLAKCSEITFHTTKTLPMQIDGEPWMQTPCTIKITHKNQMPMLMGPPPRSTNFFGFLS
Protocol: as §1, §2

DGKζ, sequence (Q13574 other isoform, or with tags, fused parts or gaps): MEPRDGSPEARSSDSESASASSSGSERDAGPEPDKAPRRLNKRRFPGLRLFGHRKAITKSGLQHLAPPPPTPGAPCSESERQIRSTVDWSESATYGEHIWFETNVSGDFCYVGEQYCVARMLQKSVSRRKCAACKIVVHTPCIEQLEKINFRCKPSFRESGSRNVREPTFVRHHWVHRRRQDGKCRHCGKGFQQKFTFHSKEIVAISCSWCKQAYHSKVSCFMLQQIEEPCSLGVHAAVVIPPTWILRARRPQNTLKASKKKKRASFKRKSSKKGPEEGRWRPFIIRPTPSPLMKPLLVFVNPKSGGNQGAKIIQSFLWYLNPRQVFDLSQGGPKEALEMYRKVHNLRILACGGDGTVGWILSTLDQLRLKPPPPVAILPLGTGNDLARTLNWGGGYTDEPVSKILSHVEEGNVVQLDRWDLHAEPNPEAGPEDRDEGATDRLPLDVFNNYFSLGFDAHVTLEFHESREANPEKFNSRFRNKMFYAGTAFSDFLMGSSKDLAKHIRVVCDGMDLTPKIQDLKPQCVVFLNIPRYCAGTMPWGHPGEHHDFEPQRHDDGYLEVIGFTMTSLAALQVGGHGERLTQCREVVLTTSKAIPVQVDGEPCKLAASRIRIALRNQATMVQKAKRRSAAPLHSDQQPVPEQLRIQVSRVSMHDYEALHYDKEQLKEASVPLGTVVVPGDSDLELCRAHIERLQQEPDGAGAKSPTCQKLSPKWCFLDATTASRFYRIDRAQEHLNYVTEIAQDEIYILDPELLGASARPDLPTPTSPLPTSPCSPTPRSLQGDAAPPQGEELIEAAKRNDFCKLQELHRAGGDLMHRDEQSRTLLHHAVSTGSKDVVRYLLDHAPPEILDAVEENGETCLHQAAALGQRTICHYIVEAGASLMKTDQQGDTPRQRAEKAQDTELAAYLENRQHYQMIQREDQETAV

Row | Structure (SMILES) | IC50 [1] [nM] | IC50 [2] [nM]
1 | CC(c1ccc2nccnc2c1)N1C[C@H](C)N(c2cc(=O)n(C)c3cc(CC#N)nn23)C[C@H]1C (mixture of isomers) [Compound A2, 2-(7-((2S,5R)-2,5-dimethyl-4-(1-(quinoxalin-6-yl)ethyl)piperazin-1-yl)-4-methyl-5-oxo-4,5-dihydropyrazolo[1,5-a]pyrimidin-2-yl)acetonitrile] | 50 | 3120
2 | CC(c1ccc2nccnc2c1)N1C[C@H](C)N(c2cc(=O)n(C)c3cc(CC#N)nn23)C[C@H]1C (single isomer, unassigned) [Compound A2a] | 1710 | > 10000
3 | CC(c1ccc2nccnc2c1)N1C[C@H](C)N(c2cc(=O)n(C)c3cc(CC#N)nn23)C[C@H]1C (single isomer, unassigned) [Compound A2b] | 32 | 6050
4 | CC[C@@H]1CN(c2cc(=O)[nH]c3cc(CC#N)nn23)[C@@H](C)CN1C(C)c1ccc2nccnc2c1 (single isomer, unassigned) [Compound A4a] | 153 | 64900
5 | CC[C@@H]1CN(c2cc(=O)[nH]c3cc(CC#N)nn23)[C@@H](C)CN1C(C)c1ccc2nccnc2c1 (single isomer, unassigned) [Compound A4b] | 7390 | > 10000
6 | CC(c1ccc2c(c1)OC(C)(C)CO2)N1C[C@H](C)N(c2c(C#N)c(=O)n(C)c3cc(CC#N)nn23)C[C@H]1C (single isomer, unassigned) [Compound A12a] | 11 | 12500
7 | CC(c1ccc2c(c1)OC(C)(C)CO2)N1C[C@H](C)N(c2c(C#N)c(=O)n(C)c3cc(CC#N)nn23)C[C@H]1C (single isomer, unassigned) [Compound A12b] | 1150 | 10400
8 | CC[C@@H]1CN(c2c(F)c(=O)n(C)c3cc(CC#N)nn23)[C@@H](C)CN1C(C)c1ccc(C2CC2)nc1 (single isomer, unassigned) [Compound A24a] | 3870 | 2670
9 | CC[C@@H]1CN(c2c(F)c(=O)n(C)c3cc(CC#N)nn23)[C@@H](C)CN1C(C)c1ccc(C2CC2)nc1 (single isomer, unassigned) [Compound A24b] | 2650 | 4480
10 | CC[C@@H]1CN(c2cc(=O)n(C)c3cc(CC#N)nn23)[C@@H](C)CN1C(C)c1ccc2ncsc2c1 (single isomer, unassigned) [Compound A28a] | 21 | 233
11 | CC[C@@H]1CN(c2cc(=O)n(C)c3cc(CC#N)nn23)[C@@H](C)CN1C(C)c1ccc2ncsc2c1 (single isomer, unassigned) [Compound A28b] | 2220 | 1470
12 | CC[C@@H]1CN(c2cc(=O)n(C)c3cc(CC#N)nn23)[C@@H](C)CN1[C@@H](C)c1ccc2ncsc2n1 (single isomer, unassigned) [Compound A29a] | 42 | 212
13 | CC[C@@H]1CN(c2cc(=O)n(C)c3cc(CC#N)nn23)[C@@H](C)CN1[C@H](C)c1ccc2ncsc2n1 (single isomer, unassigned) [Compound A29b] | 1540 | 1590
14 | CC(c1ccc2nccnc2c1)N1CCC(c2cc(=O)n(C)c3cc(CC#N)nn23)C[C@H]1C (single isomer, unassigned) [Compound A33a] | > 10000 | > 10000
15 | CC(c1ccc2nccnc2c1)N1CCC(c2cc(=O)n(C)c3cc(CC#N)nn23)C[C@@H]1C (single isomer, unassigned) [Compound A34a] | 5710 | > 150000
16 | CC(c1ccc2nccnc2c1)N1CCC(c2cc(=O)n(C)c3cc(CC#N)nn23)C[C@@H]1C (single isomer, unassigned) [Compound A34b] | > 10000 | > 150000

Row | Structure (SMILES) | IC50 [1] [nM] | IC50 [2] [nM]
17 | CC[C@H]1CN(C(C)c2ccc3nc(C)sc3n2)[C@H](CC)CN1c1cc(=O)n(C)c2cc(CC#N)nn12 (single isomer, unassigned) [Compound A35a] | 4690 | 2260
18 | CC[C@H]1CN(C(C)c2ccc3nc(C)sc3n2)[C@H](CC)CN1c1cc(=O)n(C)c2cc(CC#N)nn12 (single isomer, unassigned) [Compound A35b] | 31 | 72
19 | CC[C@H]1CN(C(C)c2ccc3cc(C(F)F)sc3n2)[C@H](CC)CN1c1cc(=O)n(C)c2cc(CC#N)nn12 (single isomer, unassigned) [Compound A37a] | 1580 | 200
20 | CC[C@H]1CN(C(C)c2ccc3cc(C(F)F)sc3n2)[C@H](CC)CN1c1cc(=O)n(C)c2cc(CC#N)nn12 (single isomer, unassigned) [Compound A37b] | 83 | 24
21 | CC[C@H]1CN(C(C)c2ccc3nc(C)cn3n2)[C@H](CC)CN1c1cc(=O)n(C)c2cc(CC#N)nn12 (single isomer, unassigned) [Compound A38a] | > 10000 | 3880
22 | CC[C@H]1CN(C(C)c2ccc3nc(C)cn3n2)[C@H](CC)CN1c1cc(=O)n(C)c2cc(CC#N)nn12 (single isomer, unassigned) [Compound A38b] | 469 | 205
23 | CC[C@H]1CN(C(C)c2ccn3nccc3n2)[C@H](CC)CN1c1cc(=O)n(C)c2cc(CC#N)nn12 (single isomer, unassigned) [Compound A39a] | > 10000 | 585
24 | CC[C@H]1CN(C(C)c2ccn3nccc3n2)[C@H](CC)CN1c1cc(=O)n(C)c2cc(CC#N)nn12 (single isomer, unassigned) [Compound A39b] | 104 | 52
25 | CC[C@H]1CN(C(C)c2ccn3nc(C)cc3n2)[C@H](CC)CN1c1cc(=O)n(C)c2cc(CC#N)nn12 (single isomer, unassigned) [Compound A40a] | 5770 | 1540
26 | CC[C@H]1CN(C(C)c2ccn3nc(C)cc3n2)[C@H](CC)CN1c1cc(=O)n(C)c2cc(CC#N)nn12 (single isomer, unassigned) [Compound A40b] | 53 | 61
27 | CC[C@H]1CN(C(C)c2ccn3nc(F)cc3n2)[C@H](CC)CN1c1cc(=O)n(C)c2cc(CC#N)nn12 (single isomer, unassigned) [Compound A41a] | 80 | 25
28 | CC[C@H]1CN(C(C)c2ccn3nc(F)cc3n2)[C@H](CC)CN1c1cc(=O)n(C)c2cc(CC#N)nn12 (single isomer, unassigned) [Compound A41b] | 4560 | 1590
29 | CC[C@H]1CN(C(C)c2ccc3nc(C)cn3n2)[C@H](CC)CN1c1nc(=O)n(C)c2cc(CC#N)nn12 (single isomer, unassigned) [Compound A45a] | > 10000 | 1880
30 | CC[C@H]1CN(C(C)c2ccc3nc(C)cn3n2)[C@H](CC)CN1c1nc(=O)n(C)c2cc(CC#N)nn12 (single isomer, unassigned) [Compound A45b] | 116 | 66
31 | CC[C@H]1CN(C(C)c2ccc3nc(C)c(F)n3n2)[C@H](CC)CN1c1nc(=O)n(C)c2cc(CC#N)nn12 (single isomer, unassigned) [Compound A48a] | > 10000 | 5330
32 | CC[C@H]1CN(C(C)c2ccc3nc(C)c(F)n3n2)[C@H](CC)CN1c1nc(=O)n(C)c2cc(CC#N)nn12 (single isomer, unassigned) [Compound A48b] | 24 | 63
